Results reported in patent publication US6291671A, “Process for producing drug complexes” (Daiichi Pharmaceutical Co., Ltd., priority 1996, dated 2001).
Counter-ions that a name gives are not always drawn. Ends that are not written are not given here. Peptide text beside a SMILES is read from it. * marks the point of attachment. DW‑8089 = (1S,9S)-1-amino-9-ethyl-2,3-dihydro-9-hydroxy-1H,12H-benzo[de]pyrano[3',4':6,7]indolizino[1,2-b]quinoline-10,13(9H,15H)-dione, CC[C@@]1(O)C(=O)OCc2c1cc1n(c2=O)Cc2c-1nc1cccc3c1c2[C@@H](N*)CC3; Exatecan = CC[C@@]1(O)C(=O)OCc2c1cc1n(c2=O)Cc2c-1nc1cc(F)c(C)c3c1c2[C@@H](N*)CC3

Assays:
[1] = system: Walker 256 tumor-bearing rats; test: Releasing rate of spacers judged from efficacy of doxorubicin drug complexes or free doxorubicin at tumorous sites; type: in vivo, rat; settings: for releasing rate of spacer: drug complexes bound with doxorubicin, Walker 256 tumor-bearing rats
Excerpt: Specific examples of the spacer are shown in the following table; however, the spacer used for the method for preparing the drug complexes of the present invention is not limited to those mentioned below, and it can be readily understood that one of ordinary skilled in the art can appropriately choose a spacer so as to achieve an optimum releasing rate of a drug compound. In the table, the left ends of peptide sequences are N-terminuses and the residues of drug compounds are bound to C-terminuses.D-Phe represents a D-phenylalanine residue and the other amino acids represent L-amino acids. The degrees of the releasing rate were judged from the degree of appearance of efficacy of the drug complexes bound with doxorubicin against Walker 256 tumor-bearing rats, or from the free doxorubicin concentration at tumorous sites of Walker 256 tumor-bearing rats.

[2] = system: Meth A tumor-bearing mice; test: Antitumor activity, Meth A tumor-bearing mice, single administration on day 7; type: in vivo, mouse; settings: for Inhibition rate: calculated based on the drug compound; for antitumor activity (in words) / effective dose-range (in words): single administration, compared to the drug compound, per se
Experimental: (§1) Meth A tumor-bearing mice were prepared (7 mice per group) by subcutaneously transplanting 1×10^6 mouse fibrosarcoma Meth A cells into the right inguinal regions of BALB/c male mice (7-week old). On day 7, the drug complex of Example 9 dissolved in distilled water for injection was injected in the tail vein of the Meth A tumor-bearing mice every 4 days 4 times. On day 21 after the transplantation, tumor masses were excised and weighed to calculate the inhibition rate of tumor growth according to the following equation: inhibition rate of tumor growth (%)=[1-(average tumor weight of the group administered with the test sample/average tumor weight of control group)]×100.
Meth A tumor-bearing mice (6 mice per group) were prepared according to a similar manner to that of Example 11 and the antitumor activity was compared to that obtained by single administration of the drug complexes of Examples 8 and 9 once on day 7.
(§2) Meth A tumor-bearing mice (6 mice per group) were prepared according to a similar manner to that of Example 11 and the antitumor activity of the drug complex of Example 15 was examined by single administration in a similar manner to that of Example 12.
as §2, with “1,” for “11”, “41” for “15”, “in the cases of” for “by”, “12, and its antitumor activity was compared to that of the drug compound, per se.” for “12.”
Meth A tumor-bearing mice (6 mice per group) were prepared according to a similar manner to that of Example 11, and the antitumor activity was examined according to a similar method to that in Example 12 by single administration of the drug complexes of Examples 29, 43, and 44, respectively.

[3] = system: Meth A tumor-bearing mice; test: Antitumor activity, Meth A tumor-bearing mice, i.v. every 4 days 4 times; type: in vivo, mouse; settings: Example 11, every 4 days 4 times
Experimental: as §1

[4] = Example 56 (table 8), 20 mg/kg single
[5] = Example 56 (table 8), 40 mg/kg single
[6] = Example 56 (table 8), 80 mg/kg single
[7] = Example 56 (table 8), 100 mg/kg single

Compound: -Gly-Gly-Gly-Phe-Gly-: spacer of drug complexes bound with doxorubicin (GGGFG; not fully specified; printed as -Gly-Gly-Gly-Phe-Gly-; also: spacer between polysaccharide derivative and drug in drug complex)
- releasing rate of spacer [1]: high releasing rate

Compound: -Phe-Gly-Gly-Gly-: spacer of drug complexes bound with doxorubicin (FGGG; not fully specified; printed as -Phe-Gly-Gly-Gly-; also: spacer between polysaccharide derivative and drug in drug complex)
- releasing rate of spacer [1]: high releasing rate

Compound: Carboxymethyldextran Polyalcohol-Gly-Gly-Phe-Gly-NH--A' (A--NH2 =DW-8089) ({carboxymethyldextran polyalcohol}-GGFG-{DW‑8089}; also: N-terminus linked to carboxymethyldextran polyalcohol, C-terminus amide-linked to drug residue A' (DW-8089)) [Example 41]
- Inhibition rate ([2]; Example 55 (table 7), 3.125 mg/kg single): 61%
- Inhibition rate ([2]; Example 55 (table 7), 6.25 mg/kg single): 81%
- Inhibition rate ([2]; Example 55 (table 7), 12.5 mg/kg single): 95%
- Inhibition rate ([2]; Example 55 (table 7), 25 mg/kg single): 99%
- antitumor activity (in words) [2]: remarkably enhanced antitumor activity
- effective dose-range (in words) [2]: broader effective dose-range

Compound: CC[C@@]1(O)C(=O)OCc2c1cc1n(c2=O)Cc2c-1nc1cc(F)c(C)c3c1c2[C@@H](NC(=O)CNC(=O)[C@H](Cc1ccccc1)NC(=O)CNC(=O)CN)CC3 [H)N-Gly-Gly-Phe-Gly-NH--A, 3'-N-(Gly-Gly-Phe-Gly)-NH--A (A--NH2 =DX-8951) Trifluoroacetic Acid Salt] (H-GGFG-Exatecan)
- antitumor activity (in words) [3]: not effective

Compound: Carboxymethyldextran Polyalcohol-Gly-Gly-Gly-Phe-NH--A' (A--NH2 =)X-8951) ({carboxymethyldextran polyalcohol}-GGGF-Exatecan; also: N-terminus linked to carboxymethyldextran polyalcohol, C-terminus amide-linked to drug residue A' (DX-8951)) [Example 43]
- Inhibition rate [2, 4]: 75%
- Inhibition rate [2, 5]: 82%
- Inhibition rate [2, 6]: 92%
- Inhibition rate [2, 7]: 94%
- antitumor activity (in words) [2]: high antitumor activity
- effective dose-range (in words) [2]: broader effective dose-range

Compound: -Ser-Gly-
- releasing rate of spacer [1]: low releasing rate

Compound: -Gly-Phe-
- releasing rate of spacer [1]: low releasing rate

Compound: -Gly-Phe-Gly-Gly-: spacer of drug complexes bound with doxorubicin (GFGG; not fully specified; printed as -Gly-Phe-Gly-Gly-; also: spacer between polysaccharide derivative and drug in drug complex)
- releasing rate of spacer [1]: high releasing rate

Compound: -Gly-Gly-Gly-Phe-: spacer of drug complexes bound with doxorubicin (GGGF; not fully specified; printed as -Gly-Gly-Gly-Phe-; also: spacer between polysaccharide derivative and drug in drug complex)
- releasing rate of spacer [1]: relatively low releasing rate

Compound: -Phe-Phe-Gly-Gly-: spacer of drug complexes bound with doxorubicin (FFGG; not fully specified; printed as -Phe-Phe-Gly-Gly-; also: spacer between polysaccharide derivative and drug in drug complex)
- releasing rate of spacer [1]: high releasing rate

Compound: -Gly-Gly-Gly-Gly-Gly-Gly-: spacer of drug complexes bound with doxorubicin
- releasing rate of spacer [1]: relatively high releasing rate

Compound: Carboxymethyldextran Polyalcohol-Gly-Gly-Gly-Phe-NH--A' (A--NH2 =DX-8951) [Example 8] ({carboxymethyldextran polyalcohol}-GGGF-Exatecan; also: N-terminus linked to carboxymethyldextran polyalcohol, C-terminus amide-linked to drug residue A' (DX-8951))
- Inhibition rate ([2]; Example 12 (Table 3), 5 mg/kg single): 76%
- Inhibition rate ([2]; Example 12 (Table 3), 10 mg/kg single): 85%
- antitumor activity (in words) [2]: (Polysaccharide derivative)-Gly-Gly-Gly-Phe-NH--A'> the drug compound, per se

Compound: -Gly-Gly-Gly-Gly-: spacer of drug complexes bound with doxorubicin (GGGG; not fully specified; printed as -Gly-Gly-Gly-Gly-; also: spacer between polysaccharide derivative and drug in drug complex)
- releasing rate of spacer [1]: low releasing rate

Compound: -Tyr-Gly-
- releasing rate of spacer [1]: high releasing rate

Compound: -Gly-Gly-Phe-Gly-: spacer of drug complexes bound with doxorubicin (GGFG; not fully specified; printed as -Gly-Gly-Phe-Gly-; also: spacer between polysaccharide derivative and drug in drug complex)
- releasing rate of spacer [1]: high releasing rate
- release of the drug compound (in words) ([1]; spacer for doxorubicin): can release the drug compound at high concentration in a short time

Compound: -Pro-Gly-
- releasing rate of spacer [1]: relatively low releasing rate

Compound: -Phe-Phe-
- releasing rate of spacer [1]: relatively low releasing rate

Compound: Carboxymethyldextran Polyalcohol-Gly-Gly-Gly-Phe-NH--A' (A--NH2 =DX-8951) [Example 29] ({carboxymethyldextran polyalcohol}-GGGF-Exatecan; also: N-terminus linked to carboxymethyldextran polyalcohol, C-terminus amide-linked to drug residue A' (DX-8951))
- Inhibition rate ([2]; Example 56 (table 8), 5 mg/kg single): 79%
- Inhibition rate ([2]; Example 56 (table 8), 10 mg/kg single): 89%
- Inhibition rate [2, 4]: 99%
- Inhibition rate ([2]; Example 56 (table 8), 30 mg/kg single): 99%
- antitumor activity (in words) [2]: high antitumor activity
- effective dose-range (in words) [2]: broader effective dose-range

Compound: -Phe-Gly-
- releasing rate of spacer [1]: high releasing rate

Compound: -Gly-Gly-Phe-Phe-: spacer of drug complexes bound with doxorubicin (GGFF; not fully specified; printed as -Gly-Gly-Phe-Phe-; also: spacer between polysaccharide derivative and drug in drug complex)
- releasing rate of spacer [1]: relatively high releasing rate

Compound: -Gly-Gly-Gly-
- releasing rate of spacer [1]: low releasing rate

Compound: α-methylcarboxymethyldextran Polyalcohol-Gly-Gly-Gly-Phe-NH--A' (A--NH2 =DX-8951) [Example 44]
- Inhibition rate [2, 4]: 75%
- Inhibition rate [2, 5]: 97%
- Inhibition rate [2, 6]: 94%
- Inhibition rate [2, 7]: 96%
- antitumor activity (in words) [2]: high antitumor activity
- effective dose-range (in words) [2]: broader effective dose-range

Compound: -Ala-Gly-
- releasing rate of spacer [1]: relatively low releasing rate

Compound: -Leu-Gly-
- releasing rate of spacer [1]: high releasing rate

Compound: -Gly-Gly-
- releasing rate of spacer [1]: low releasing rate
